Where a name gives a salt, the structure may show the parent alone.
Experiments:
CDK2/Cyclin E1 [1] = molecular target: T1, CDK2/Cyclin E1 (Homo sapiens, UniProt P24941); experiment: ADPGLO (CDK2/E1-37 C), ADP-Glo Luminescent Kinase Assay; format: biochemical; conditions: 0.18 nM CDK2/Cyclin E1, 100 μM ATP, Histone H1, 37° C.
T1 construct: purchased 14-475
Procedure: Inhibition of CDK2/Cyclin E1 activity by the presence of small molecules was evaluated using ADP-Glo Luminescent Kinase Assay (Promega). Activated CDK2/Cyclin E1 was incubated with its substrate Histone H1 (SignalChem H10-54N) in the kinase reaction buffer (100 μM ATP, 50 mM HEPES pH 7.5, 10 mM MgCl2, 1 mM EDTA, 2 mM DTT, 0.01% Brij35, 0.5 mg/mL BSA). Luminescence was recorded with an Envision plate reader (PerkinElmer).
Dose titrations of inhibitors in 100% DMSO were combined with 0.36 nM CDK2/Cyclin E1 in reaction buffer. The mixtures were incubated for 60 minutes at 37° C. before the addition of ATP and Histone H1 substrate to initiate the kinase reaction. The final conditions were 0.18 nM CDK2/Cyclin E1, 100 μM ATP, and 1.5 μM Histone H1. The reactions were incubated at 37° C. for 90 minutes before being stopped with the addition of ADP-Glo reagent. This mixture was incubated at room temperature for 60 minutes before Kinase Detection Solution is added to generate luminescence. The stopped reactions were analyzed on an Envision plate reader. The conversion ratios were normalized to yield % activity, plotted against compound concentration, and fit to a four-parameter equation to determine the IC50 for each compound.

CDK2/Cyclin E1 [2] = molecular target: T1, CDK2/Cyclin E1; experiment: Caliper Assay (LabChip EZ Reader mobility shift assay), inhibition of CDK2/Cyclin E1 activity; format: biochemical; conditions: 2.5 nM CDK2/Cyclin E1(14-475), 100 μM ATP, 30 min preincubation; read-out: Caliper Assay (CDK2/CCNE1): IC50
In short: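 Compounds were preincubated 30 min with CDK2/Cyclin E1(14-475), then run for 100 min with 2.5 nM enzyme, 100 μM ATP and 1.5 μM 5-FAM-QSPKKG peptide in HEPES pH 7.5 (final). Reactions were EDTA-stopped and substrate-to-product conversion read by mobility shift. IC50 came from a four-parameter fit.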

Kuramochi cells = experiment: IncuCyte Kuramochi Assay (cell proliferation); format: cell-based; conditions: 72 h, Kuramochi cells labeled with mApple-H2B, cell count, read-out: IncuCyte - Kuramochi RB-WT: IC50
In short: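 Cells imaged at 0 and 72 h after compound treatment (10 points, ½ log dilution, 20 μM top), with fluorescent nuclei counted. Fold change in count was normalized to DMSO wells and fitted to dose-response curves to give GI50.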

[3] = test system: mouse models of polycystic kidney disease; conditions: Bukanov et al., Nature 2006; cited from earlier work

Row | IC50 (CDK2/Cyclin E1 [1]) [µM] | IC50 (CDK2/Cyclin E1 [2]) [µM] | Structure (SMILES) | IC50 (Kuramochi cells) [µM] | arrest of cystic kidney disease [3]
1 | > 10 | > 100 | CC(c1nc(C2CN(C(=O)c3nccnc3O)CC23CN(C(=O)[C@H]2CC2(F)F)C3)no1)n1ccc(C2CCCC2)n1 (stereo partly shown) [I-129] | > 10 | 
2 | 0.5 to 5 | 0.01 to 0.1 | CC(c1nc(C2CN(C(=O)c3cnn(Cc4cc(F)c(C(=O)O)c(F)c4)c3)CC23CN(C(=O)[C@H]2CC2(C)C)C3)no1)n1ccc(C2CCCC2)n1 (stereo partly drawn) [I-130, 4-((4-(8-(5-(1-(3-cyclopentyl-1H-pyrazol-1-yl)ethyl)-1,2,4-oxadiazol-3-yl)-2-((S)-2,2-dimethylcyclopropane-1-carbonyl)-2,6-diazaspiro[3.4]octane-6-carbonyl)-1H-pyrazol-1-yl)methyl)-2,6-difluorobenzoic acid] | > 10 | 
3 | 0.5 to 5 | ≤ 0.01 | CC(c1nc(C2CN(C(=O)c3cnn(Cc4cccc(C(=O)O)c4)c3)CC23CN(C(=O)[C@H]2CC2(C)C)C3)no1)n1ccc(C2CCCC2)n1 (stereo partly shown) [I-131] | > 10 | 
4 | > 10 | 1 to 10 | O=C(c1cnc(O)cn1)N1CC(c2nnc(C(F)(F)c3ccc(C4CCOCC4)cc3)o2)C2(C1)CN(C(=O)[C@H]1CC1(F)F)C2 (stereo partly drawn) [I-132, (8-(5-(difluoro(4-(tetrahydro-2H-pyran-4-yl)phenyl)methyl)-1,3,4-oxadiazol-2-yl)-2-((R)-2,2-difluorocyclopropane-1-carbonyl)-2,6-diazaspiro[3.4]octan-6-yl)(5-hydroxypyrazin-2-yl)methanone] | > 10 | 
5 | ≤ 0.5 | ≤ 0.01 | CC(c1nc(C2CN(C(=O)c3cnn(Cc4ccc(C#N)cc4)c3)CC23CN(C(=O)[C@H]2CC2(C)C)C3)no1)n1ccc(C2CCCC2)n1 (stereo partly drawn) [I-133, 4-((4-(8-(5-(1-(3-cyclopentyl-1H-pyrazol-1-yl)ethyl)-1,2,4-oxadiazol-3-yl)-2-((S)-2,2-dimethylcyclopropane-1-carbonyl)-2,6-diazaspiro[3.4]octane-6-carbonyl)-1H-pyrazol-1-yl)methyl)benzonitrile] | 0.5 to 5 | 
6 | 0.5 to 5 | 0.1 to 1 | CC(c1nc(C2CN(C(=O)c3cnc(O)cn3)CC23CN(C(=O)[C@H]2CC2(F)F)C3)no1)n1ccc(C2CCCC2)n1 (stereo partly drawn) [I-134, (8-(5-(1-(3-cyclopentyl-1H-pyrazol-1-yl)ethyl)-1,2,4-oxadiazol-3-yl)-2-((R)-2,2-difluorocyclopropane-1-carbonyl)-2,6-diazaspiro[3.4]octan-6-yl)(5-hydroxypyrazin-2-yl)methanone] | > 10 | 
7 | > 100 | > 100 | O=C(c1nccnc1O)N1CC(c2nnc(C(F)(F)c3ccc(Cl)c(Cl)c3)o2)C2(CN(CC3CCCO3)C2)C1 (stereo not shown) [I-135] | > 10 | 
8 | > 100 | > 100 | O=C(c1[nH]ncc1C(F)(F)F)N1CC(c2nnc(C(F)(F)c3ccc(Cl)c(Cl)c3)o2)C2(CN(CC3CCCO3)C2)C1 (stereo not shown) [I-136] | > 10 | 
9 | > 10 | 1 to 10 | COc1cn[nH]c1C(=O)N1CC(c2nnc(C(F)(F)c3ccc(Cl)c(Cl)c3)o2)C2(C1)CN(C(=O)[C@H]1CC1(F)F)C2 (stereo partly drawn) [I-137, (8-(5-((3,4-dichlorophenyl)difluoromethyl)-1,3,4-oxadiazol-2-yl)-2-((R)-2,2-difluorocyclopropane-1-carbonyl)-2,6-diazaspiro[3.4]octan-6-yl)(4-methoxy-1H-pyrazol-5-yl)methanone] | > 10 | 
10 | > 100 | > 10 | COc1cc(C(=O)N2CC(c3nnc(C(F)(F)c4ccc(Cl)c(Cl)c4)o3)C3(C2)CN(C(=O)[C@H]2CC2(F)F)C3)[nH]n1 (stereo partly shown) [I-138] | > 10 | 
11 | > 100 | > 100 | O=C(c1ccn[nH]1)N1CC(c2nnc(C(F)(F)c3ccc(Cl)c(Cl)c3)o2)C2(CN(CC3CCCO3)C2)C1 (stereo not shown) [I-139, (8-(5-((3,4-dichlorophenyl)difluoromethyl)-1,3,4-oxadiazol-2-yl)-2-((tetrahydrofuran-2-yl)methyl)-2,6-diazaspiro[3.4]octan-6-yl)(1H-pyrazol-5-yl)methanone formate] | > 10 | 
12 | > 10 | > 10 | O=C(c1cnc(O)cn1)N1CC(c2nnc(C(F)(F)c3ccc(Cl)c(Cl)c3)o2)C2(CN(CC3CCCO3)C2)C1 (stereo not shown) [I-140] | > 10 | 
13 | > 10 | > 100 | O=C(c1cn[nH]c1C(F)(F)F)N1CC(c2nnc(C(F)(F)c3ccc(Cl)c(Cl)c3)o2)C2(CN(CC3CCCO3)C2)C1 (stereo not shown) [I-141] | > 10 | 
14 | > 10 | > 100 | O=C(c1cc(C(F)(F)F)n[nH]1)N1CC(c2nnc(C(F)(F)c3ccc(Cl)c(Cl)c3)o2)C2(CN(CC3CCCO3)C2)C1 (stereo not shown) [I-142] | > 10 | 
15 | > 10 | > 100 | O=C(c1cn[nH]c1)N1CC(c2nnc(C(F)(F)c3ccc(Cl)c(Cl)c3)o2)C2(CN(CC3CCCO3)C2)C1 (stereo not shown) [I-143] | > 10 | 
16 |  |  | CC[C@H](CO)Nc1nc(NCc2ccccc2)c2ncn(C(C)C)c2n1 [roscovitine] |  | effective arrest of cystic kidney disease
